SMILES strings stand for the structures. pIC50: −log10 of the molar value.

In the first assay the test system is Human primary T cells. Briefly: IL-2 ELISA, Human Primary T Cell, Anti-CD3+CD28+ (Example 3). Type of assay: cell-based. Particulars: Homo sapiens, T-cell, 24 h, anti-CD3+CD28 stimulation. Summed up:
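Human primary T cells, 100,000 per well, were pre-incubated with compound in Yssel's medium for 1 h at 37 °C. The counter-assay used 0.5 ng/ml PMA with 0.1 uM ionomycin final.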
In general terms: An ELISA detects its analyte on a solid surface through an enzyme-linked reagent.
Take `CN1C(C)(C)CC(Nc2nc(Nc3nc4cc(Cl)ccc4o3)ncc2F)CC1(C)C` [II-12]: the pIC50 was 5.39.
Same read-out and setting: then `CC(C)N1C(=O)C(C)(C)Oc2cc(Nc3ncc(F)c(NC4CC(C)(C)N(C)C(C)(C)C4)n3)ccc21` [II-44], with 6.53; and `CC1(C)CC(Nc2nc(Nc3ccc4c(c3)OC3(CCCCC3)O4)ncc2F)CC(C)(C)N1` [II-121], with 5.74.
The same measure, in the same setting: then `CN1C(C)(C)CC(Nc2nc(Nc3nc(-c4ccc(F)cc4F)cs3)ncc2F)CC1(C)C` [II-141], with 6.00.
On to `CN1C(C)(C)CC(Nc2nc(Nc3ccc4c(c3)oc(=O)n4CCN3CCOCC3)ncc2C#N)CC1(C)C` [II-169], for which the pIC50 is 5.46.
Still for that read-out and setting: then `CN1CCN(C(=O)C2COc3cc(Nc4ncc(F)c(NC5CC(C)(C)N(C)C(C)(C)C5)n4)ccc3O2)CC1` (stereo not drawn) [II-158], with 5.14; and `CN1C(C)(C)CC(Nc2nc(Nc3cc4c(cc3F)OC(F)(F)O4)ncc2F)CC1(C)C` [II-176], with 5.67.
`COc1ccc(Nc2ncc(F)c(N(Cc3ccc4ccccc4c3)C3CC(C)(C)N(C)C(C)(C)C3)n2)cc1OC(F)F` [Compound I-316] showed a pIC50 of 5.46.
Same read-out and setting: then `CN1C(C)(C)CC(N(Cc2ccc(-c3ccccc3)cc2)c2nc(Nc3ccc4c(c3)OCCO4)ncc2F)CC1(C)C` [II-88], with 5.61.
Still for that read-out and setting: then `CN1C(C)(C)CC(Nc2nc(Nc3nc(-c4ccc(Oc5ccccc5)cc4)cs3)ncc2F)CC1(C)C` [II-139], with 6.04; and `COc1ccc(Nc2ncc(F)c(NC3CC(C)(C)N(C)C(C)(C)C3)n2)cn1` [Compound I-345], with 5.27.
The same measure, in the same setting: then `Cc1cnc(Nc2ccc3c(c2)OCCO3)nc1NC1CC(C)(C)N(C)C(C)(C)C1` [II-146], with 5.50.
Turning to `CN1C(=O)c2ccc(Nc3ncc(F)c(NC4CC(C)(C)N(C)C(C)(C)C4)n3)cc2C1=O` [II-149], the negative logarithm of the IC50 (pIC50) was 6.00.
On to `COc1cc(Nc2ncc(F)c(NC3CC(C)(C)N(C)C(C)(C)C3)n2)cc(-n2nnnc2C)c1` [Compound I-358], for which the pIC50 is 7.53.
The same measure, in the same setting: then `CC(C)N1CCc2cc(Nc3ncc(F)c(NC4CC(C)(C)N(C)C(C)(C)C4)n3)ccc21` [II-53], with 5.32.
Same read-out and setting: then `CN1C(C)(C)CC(Nc2nc(Nc3ccc4c(c3)C(=O)NC4=O)ncc2F)CC1(C)C` [II-148], with 6.00.
Compound `CN1C(C)(C)CC(Nc2nc(Nc3ccc4c(c3)OCCO4)ncc2Br)CC1(C)C` [II-127] had a pIC50 of 6.35.
On the same count and under the same terms, then `Cc1ccc(C)n1-c1cc(Nc2ncc(F)c(NC3CC(C)(C)N(C)C(C)(C)C3)n2)ccc1OCCN1CCCC1` [Compound I-440], with 6.28.
The same measure, in the same setting: then `CN1C(C)(C)CC(Nc2nc(Nc3nc(C(F)(F)F)co3)ncc2F)CC1(C)C` [II-134], with 4.80.
On the same count and under the same terms, then `CN1C(C)(C)CC(Nc2nc(Nc3ccc4c(c3)OC3(CCCCC3)O4)ncc2F)CC1(C)C` [II-114], with 5.58; and `CN1C(C)(C)CC(Nc2nc(Nc3nc(-c4ccc(NS(=O)(=O)c5ccc(Cl)cc5)cc4)cs3)ncc2F)CC1(C)C` [II-142], with 5.99; and `CC1(C)CC(Nc2nc(Nc3cc(Cl)cc(Cl)c3)ncc2F)CC(C)(C)N1CCC(=O)O` [Compound I-304], with 5.02.
Compound `COC(=O)CCN1C(C)(C)CC(Nc2nc(Nc3cc(Cl)cc(Cl)c3)ncc2F)CC1(C)C` [Compound I-294] gave a pIC50 of 5.34.
Same read-out and setting: then `CCN1C(=O)C(C)(C)Oc2cc(Nc3ncc(F)c(NC4CC(C)(C)N(C)C(C)(C)C4)n3)cnc21` [II-55], with 6.59; and `CN1C(C)(C)CC(N(Cc2cc3c(cc2Br)OCO3)c2nc(Nc3ccc4c(c3)OCCO4)ncc2F)CC1(C)C` [II-90], with 5.25; and `CN1C(C)(C)CC(Nc2nc(Nc3nc4ccc(S(C)(=O)=O)cc4s3)ncc2F)CC1(C)C` [II-144], with 5.97.
`CN(C)c1ccc(-c2ccc(Nc3ncc(F)c(NC4CC(C)(C)NC(C)(C)C4)n3)cc2C#N)cn1` [Compound I-428] had a pIC50 of 6.25.
Same read-out and setting: then `CCN1C(=O)COc2cc(Nc3ncc(F)c(NC4CC(C)(C)N(C)C(C)(C)C4)n3)ccc21` [II-58], with 6.64.

The same assay, now with this note: anti-CD3+CD28 stimulation, 24 hours.
In the case of `CN1C(C)(C)CC(Nc2nc(Nc3cc(-c4cc5ccccc5s4)cc(C(F)(F)F)c3)ncc2F)CC1(C)C` [Compound I-205], the pIC50 was 6.02.
On the same count and under the same terms, then `CN1C(C)(C)CCC(Nc2nc(Nc3ccc(N4CCN(S(C)(=O)=O)CC4)c(C(F)(F)F)c3)ncc2F)CC1(C)C` (stereo not drawn) [Compound I-264, 5-Fluoro-N2-[4-methylsulfonylpiperazin-lyl-3-trifluoromethyl]phenyl-N4-(1,2,2,7,7-pentamethylazepan-4-yl)-2,4-pyrimidinediamine], with 5.37.
For `CN1C(C)(C)CC(Nc2nc(Nc3ccc(N4CCOCC4)c(C(F)(F)F)c3)ncc2C(F)(F)F)CC1(C)C` [Compound I-330], the pIC50 was 5.95.
The same measure, in the same setting: then `CN1C(C)(C)CC(Nc2nc(Nc3ccc(-c4cnn(C)c4)cc3)ncc2F)CC1(C)C` [Compound I-144], with 5.97.
On the same count and under the same terms, then `COc1ccc(Nc2ncc(F)c(NC3CC(C)(C)N(C)C(C)(C)C3)n2)cc1-c1cccnc1` [Compound I-194], with 6.09; and `CN1C(C)(C)CC(Nc2nc(Nc3ccc(OC(F)(F)F)c(-c4ccncc4)c3)ncc2F)CC1(C)C` [Compound I-207], with 6.40.
Still for that read-out and setting: then `Cc1ccc(Nc2ncc(C(F)(F)F)c(NC3CC(C)(C)N(C)C(C)(C)C3)n2)cc1C#N` [Compound I-171], with 6.17; and `CC1(C)CC(Nc2nc(Nc3cccc(-n4cnnn4)c3)ncc2C(N)=O)CC(C)(C)N1` [Compound I-392], with 5.35; and `CC(C)N1C(=O)C(C)(C)S(=O)(=O)c2cc(Nc3ncc(F)c(NC4CC(C)(C)N(C)C(C)(C)C4)n3)ccc21` [II-67], with 6.09.
For the compound `COc1ccc(Nc2ncc(F)c(NC3CC(C)(C)N(C)C(C)(C)C3)n2)cc1OCC(F)(F)F` [Compound I-401], the pIC50 was 5.50.
Still for that read-out and setting: then `CN1C(=O)C(C)(C)S(=O)(=O)c2cc(Nc3ncc(F)c(NC4CC(C)(C)N(C)C(C)(C)C4)n3)ccc21` [II-64], with 6.07; and `CC1(C)CC(Nc2nc(Nc3cc(OCC(F)(F)F)cc(OCC(F)(F)F)c3)ncc2C(N)=O)CC(C)(C)N1` [Compound I-408], with 5.98; and `CCOc1ccc(Nc2ncc(F)c(NC3CC(C)(C)N(C)C(C)(C)C3)n2)cc1-n1nnnc1CC` [Compound I-409], with 7.30.
Still for that read-out and setting: then `CN1C(C)(C)CC(Nc2nc(Nc3ccc4c(c3)OCCO4)ncc2C#N)CC1(C)C` [II-60], with 6.14; and `CN1C(C)(C)CC(Nc2nc(Nc3ccc4c(c3)OCC(=O)N4CC3CC3)ncc2F)CC1(C)C` [II-77], with 7.00; and `COc1cc(Nc2ncc(C)c(NC3CC(C)(C)N(C)C(C)(C)C3)n2)cc(OC)c1OC` [Compound I-16], with 5.28.
Still for that read-out and setting: then `CN1CCN(c2ccc(Nc3ncc(F)c(N(C)C4CC(C)(C)N(C)C(C)(C)C4)n3)cc2Cl)CC1` [Compound I-60], with 6.28; and `Cc1ccc(Nc2ncc(C)c(NC3CC(C)(C)N(C)C(C)(C)C3)n2)cc1S(N)(=O)=O` [Compound I-15], with 5.16; and `CC1(C)CC(Nc2nc(Nc3ccc(N4CCN(S(C)(=O)=O)CC4)c(C(F)(F)F)c3)ncc2F)CC(C)(C)N1` [Compound I-257], with 6.37.
Compound `CN1C(C)(C)CC(Nc2nc(Nc3ccc4c(c3)OC(C)(C)C(=O)N4)ncc2F)CC1(C)C` [II-33] showed a pIC50 of 6.39.
Same read-out and setting: then `CN1C(C)(C)CC(Nc2nc(Nc3ccc(OC(F)(F)F)c(-c4ccoc4)c3)ncc2F)CC1(C)C` [Compound I-209], with 6.15; and `COC(=O)/C=C/N1C(C)(C)CC(Nc2nc(Nc3ccc(OC)c(C(F)(F)F)c3)ncc2F)CC1(C)C` [Compound I-301], with 6.02.
Still for that read-out and setting: then `COc1ccc(Nc2ncc(F)c(NC3CCC(C)(C)N(C)C(C)(C)C3)n2)cc1C(F)(F)F` (stereo not drawn) [Compound I-268, 5-Fluoro-N2-[4-methoxy-3-trifluoromethyl]phenyl-N4-(1,2,2,7,7-pentamethylazepan-4-yl)-2,4-pyrimidinediamine], with 4.50.
The compound `CN1C(C)(C)CC(Nc2nc(Nc3ccc4c(c3)OC(C)(C)C(=O)N4CC3CC3)ncc2F)CC1(C)C` [II-76] had a pIC50 of 6.75.
On the same count and under the same terms, then `COC(=O)N1CCN(c2cc(Nc3ncc(F)c(NC4CC(C)(C)N(C)C(C)(C)C4)n3)ccc2C(F)(F)F)CC1` [Compound I-214], with 6.27.
Regarding `CCN1CCN(c2ccc(Nc3ncc(C)c(NC4CC(C)(C)N(C)C(C)(C)C4)n3)cc2C)CC1` [Compound I-18], the pIC50 was 5.03.
On to `CCCN1C(C)CN(c2cc(Nc3ncc(F)c(NC4CC(C)(C)N(C)C(C)(C)C4)n3)ccc2Cl)CC1C` (stereo not drawn) [Compound I-220], for which the pIC50 was 5.98.
Same read-out and setting: then `CN1C(C)(C)CC(Nc2ccnc(Nc3ccc(N4CCN(S(C)(=O)=O)CC4)c(C(F)(F)F)c3)n2)CC1(C)C` [Compound I-228], with 6.14; and `COc1ccc(Nc2ncc(F)c(NC3CC(C)(C)N(C)C(C)(C)C3)n2)cc1OCC(=O)NC1CC1` [Compound I-412], with 5.18.
On the same count and under the same terms, then `CN1CCN(c2ccc(Nc3nccc(NC4CC(C)(C)N(C)C(C)(C)C4)n3)cc2C(F)(F)F)CC1` [Compound I-229], with 6.23.
Same read-out and setting: then `CN1CCN(S(=O)(=O)c2ccc(Nc3ncc(F)c(NC4CC(C)(C)N(C)C(C)(C)C4)n3)cc2Cl)CC1` [Compound I-45], with 5.62.
`CN1C(C)(C)CC(Nc2nc(Nc3ccc(Cl)c(N4CCN(S(C)(=O)=O)CC4)c3)ncc2F)CC1(C)C` [Compound I-68] had a negative-log IC50 (pIC50) of 6.23.
On the same count and under the same terms, then `CC(=O)Nc1ccc(Nc2ncc(F)c(NC3CC(C)(C)N(C)C(C)(C)C3)n2)cc1C(F)(F)F` [Compound I-161], with 5.98; and `CN1CCN(c2ccc(Nc3ncc([N+](=O)[O-])c(NC4CC(C)(C)N(C)C(C)(C)C4)n3)cc2Cl)CC1` [Compound I-76], with 6.22; and `CN1C(C)(C)CC(Nc2nc(Nc3ccc(N4CCN(S(C)(=O)=O)CC4)c(C#N)c3)ncc2C#N)CC1(C)C` [Compound I-196], with 6.01.

Usually pIC50 stands for the negative decadic logarithm of the IC50, by convention in mol/L. Read a high pIC50 as a low IC50.

The values above are taken from patent US8993585B2, “Cyclic amine substituted pyrimidinediamines as PKC inhibitors” (Rigel Pharmaceuticals, Inc., priority 2007, dated 2015).
